The text below walks through data of US9278962B2 (Cytokinetics, Inc., priority 2011, dated 2016).

Structures are written as SMILES.

The assay has as its system rabbit skeletal myofibrils (approximately 90% fast fibers). Description: Activation of fast skeletal myofibrils (PUMA coupled-enzyme ATPase assay, AC1.4). Type of assay: biochemical. To be noted: concentration at which the compound increased enzymatic activity by 40%, calcium at pCa25.

With `CC(C)(CNc1nc(CCC(=O)O)ns1)c1ccc(F)cc1` [3-(5-{[2-(4-fluorophenyl)-2-methylpropyl]amino}-1,2,4-thiadiazol-3-yl)propanoic acid], the “Mean AC1.4” value (Table 2) is reported as “D (D=>20 uM)”.

In the case of `NC(=O)c1cccc(-c2nsc(NCCc3ccc(F)cc3)n2)c1` [3-(5-{[2-(4-fluorophenyl)ethyl]amino}-1,2,4-thiadiazol-3-yl)benzamide], the “Mean AC1.4” value (Table 2) is recorded as “B (B=1-10 uM)”.

For `N#Cc1cccc(-c2nsc(NCCc3ccc(F)cc3)n2)c1` [3-(5-{[2-(4-fluorophenyl)ethyl]amino}-1,2,4-thiadiazol-3-yl)benzenecarbonitrile], the “Mean AC1.4” value (Table 2) is given as “D (D=>20 uM)”.

`CN1CCN(C(=O)CNc2nc(-c3cccc(C(N)=O)c3)ns2)CC1` [3-(5-{[2-(4-methylpiperazinyl)-2-oxoethyl]amino}-1,2,4-thiadiazol-3-yl)benzamide]: under “Table 2”, the “Mean AC1.4” value was “D (D=>20 uM)”.

For the molecule `CC(C)(CNc1nc(-c2cccc(C(N)=O)c2)ns1)c1ccc(F)cn1` [3-(5-{[2-(5-fluoro(2-pyridyl))-2-methylpropyl]amino}-1,2,4-thiadiazol-3-yl)benzamide], the “Mean AC1.4” value (Table 2) is on record as “B (B=1-10 uM)”.

With `C[C@H](CNc1nc(-c2cccc(C(N)=O)c2)ns1)c1ccc(F)cc1` [3-(5-{[(2S)-2-(4-fluorophenyl)propyl]amino}-1,2,4-thiadiazol-3-yl)benzamide], the “Mean AC1.4” value (Table 2) is “A (A=<1 uM)”.

As to `CC(C)(CNc1nc(Cl)ns1)c1ccc(F)cc1` [3-Chloro-N-(2-(4-fluorophenyl)-2-methylpropyl)-1,2,4-thiadiazol-5-amine], where the note is “Table 2”, the “Mean AC1.4” value was “B (B=1-10 uM)”.

Consider `CN(C)c1nc(-c2cccc(C(N)=O)c2)ns1` [3-[5-(dimethylamino)-1,2,4-thiadiazol-3-yl]benzamide], for which, for the setting “Table 2”, the “Mean AC1.4” value is reported as “D (D=>20 uM)”.

Turning to `CC(=O)N1CCC(CNc2nc(-c3cccc(C(N)=O)c3)ns2)(c2ccc(F)cc2)CC1` [3-[5-({[1-acetyl-4-(4-fluorophenyl)-4-piperidyl]methyl}amino)-1,2,4-thiadiazol-3-yl]benzamide], the “Mean AC1.4” value (Table 2) is on record as “D (D=>20 uM)”.

`CN1CCC(CNc2nc(-c3cccc(C(N)=O)c3)ns2)(c2ccc(F)cc2)CC1` [3-[5-({[4-(4-fluorophenyl)-1-methyl-4-piperidyl]methyl}amino)-1,2,4-thiadiazol-3-yl]benzamide]: for the setting “Table 2”, the “Mean AC1.4” value is “D (D=>20 uM)”.

Take `NC(=O)c1cccc(-c2nsc(NCC3(c4ccc(F)cc4)CCNCC3)n2)c1` [3-[5-({[4-(4-fluorophenyl)-4-piperidyl]methyl}amino)-1,2,4-thiadiazol-3-yl]benzamide]: the “Mean AC1.4” value (Table 2) is on record as “D (D=>20 uM)”.

Consider `Oc1cccc(Cc2nsc(NCCc3cccc(Cl)c3)n2)c1` [3-[(5-{[2-(3-chlorophenyl)ethyl]amino}-1,2,4-thiadiazol-3-yl)methyl]phenol], for which the “Mean AC1.4” value (Table 2) is “B (B=1-10 uM)”.

Consider `CC(C)(CNc1nc(Cc2cccc(O)c2)ns1)c1ccc(Cl)cc1` [3-[(5-{[2-(4-chlorophenyl)-2-methylpropyl]amino}-1,2,4-thiadiazol-3-yl)methyl]phenol], for which the “Mean AC1.4” value (Table 2) was “A (A=<1 uM)”.

On to `Oc1cccc(Cc2nsc(NCCc3ccc(Cl)cc3)n2)c1` [3-[(5-{[2-(4-chlorophenyl)ethyl]amino}-1,2,4-thiadiazol-3-yl)methyl]phenol], for which the “Mean AC1.4” value (Table 2) is “B (B=1-10 uM)”.

Take `CC(C)(CNc1nc(Cc2cccc(O)c2)ns1)c1ccc(F)cc1` [3-[(5-{[2-(4-fluorophenyl)-2-methylpropyl]amino}-1,2,4-thiadiazol-3-yl)methyl]phenol]: the “Mean AC1.4” value (Table 2) is “A (A=<1 uM)”.

Regarding `CN(CC(C)(C)c1ccc(F)cc1)c1nc(Cc2cccc(O)c2)ns1` [3-[(5-{[2-(4-fluorophenyl)-2-methylpropyl]methylamino}-1,2,4-thiadiazol-3-yl)methyl]phenol], where the note is “Table 2”, the “Mean AC1.4” value is listed as “D (D=>20 uM)”.

Regarding `Oc1ccc(CCNc2nc(Cc3cccc(O)c3)ns2)cc1` [3-[(5-{[2-(4-hydroxyphenyl)ethyl]amino}-1,2,4-thiadiazol-3-yl)methyl]phenol], the “Mean AC1.4” value (Table 2) is “D (D=>20 uM)”.

For `C[C@@H](CNc1nc(Cc2cccc(O)c2)ns1)c1ccc(F)cc1` [3-[(5-{[(2R)-2-(4-fluorophenyl)propyl]amino}-1,2,4-thiadiazol-3-yl)methyl]phenol], the “Mean AC1.4” value (Table 2) is given as “A (A=<1 uM)”.

Turning to `C[C@H](CNc1nc(Cc2cccc(O)c2)ns1)c1ccc(F)cc1` [3-[(5-{[(2S)-2-(4-fluorophenyl)propyl]amino}-1,2,4-thiadiazol-3-yl)methyl]phenol], the “Mean AC1.4” value (Table 2) is given as “A (A=<1 uM)”.

As to `Oc1cccc(Cc2nsc(NCc3ccc(Cl)c(Cl)c3)n2)c1` [3-[(5-{[(3,4-dichlorophenyl)methyl]amino}-1,2,4-thiadiazol-3-yl)methyl]phenol], the “Mean AC1.4” value (Table 2) is “D (D=>20 uM)”.

As to `Oc1cccc(Cc2nsc(NCc3ccc(Cl)cc3)n2)c1` [3-[(5-{[(4-chlorophenyl)methyl]amino}-1,2,4-thiadiazol-3-yl)methyl]phenol], for the setting “Table 2”, the “Mean AC1.4” value is “D (D=>20 uM)”.

Consider `CC(C)(CNc1nc(-c2ccc(O)cc2Cl)ns1)c1ccc(F)cc1` [3-chloro-4-(5-{[2-(4-fluorophenyl)-2-methylpropyl]amino}(1,2,4-thiadiazol-3-yl))phenol], for which the “Mean AC1.4” value (Table 2) is reported as “A (A=<1 uM)”.

On to `NC(=O)c1cccc(-c2nsc(NCC(=O)C3CCCCN3)n2)c1` (stereo not drawn) [3-{5-[(2-oxo-2-piperidylethyl)amino]-1,2,4-thiadiazol-3-yl}benzamide], for which the “Mean AC1.4” value (Table 2) is on record as “D (D=>20 uM)”.

In the case of `N#Cc1cccc(-c2nsc(NCC(=O)C3CCCCN3)n2)c1` (stereo not drawn) [3-{5-[(2-oxo-2-piperidylethyl)amino]-1,2,4-thiadiazol-3-yl}benzenecarbonitrile], under “Table 2”, the “Mean AC1.4” value was “D (D=>20 uM)”.

Take `NC(=O)c1cccc(-c2nsc(NCCc3ccccc3)n2)c1` [3-{5-[(2-phenylethyl)amino]-1,2,4-thiadiazol-3-yl}benzamide]: where the note is “Table 2”, the “Mean AC1.4” value is given as “C (C=10-20 uM)”.

Take `NC(=O)c1cccc(-c2nsc(NCCCc3ccccc3)n2)c1` [3-{5-[(3-phenylpropyl)amino]-1,2,4-thiadiazol-3-yl}benzamide]: the “Mean AC1.4” value (Table 2) is “D (D=>20 uM)”.

Consider `CC(C)(CNc1nc(CNCCCO)ns1)c1ccc(F)cc1` [3-{[(5-{[2-(4-fluorophenyl)-2-methylpropyl]amino}-1,2,4-thiadiazol-3-yl)methyl]amino}propan-1-ol], for which, where the note is “Table 2”, the “Mean AC1.4” value is recorded as “D (D=>20 uM)”.

`NC(=O)c1ccc(-c2nnc(NCC3(c4ncccc4F)CCC3)s2)cc1` [4-(5-((1-(3-fluoropyridin-2-yl)cyclobutyl)methylamino)-1,3,4-thiadiazol-2-yl)benzamide]: the “Mean AC1.4” value (Table 3) is reported as “D (D=>20 uM)”.

For the molecule `N#Cc1ccc(-c2nnc(NCC3(c4ncccc4F)CCC3)s2)cc1` [4-(5-((1-(3-fluoropyridin-2-yl)cyclobutyl)methylamino)-1,3,4-thiadiazol-2-yl)benzonitrile], the “Mean AC1.4” value (Table 3) is reported as “D (D=>20 uM)”.

Consider `CC(C)(O)CCc1nsc(NCC(C)(C)c2ccc(F)cc2)n1` [4-(5-{[2-(4-fluorophenyl)-2-methylpropyl]amino}(1,2,4-thiadiazol-3-yl))-2-methylbutan-2-ol], for which the “Mean AC1.4” value (Table 2) is “B (B=1-10 uM)”.

`CC(C)(CNc1nc(-c2ccc(C(N)=O)cc2)ns1)c1ccc(F)cc1` [4-(5-{[2-(4-fluorophenyl)-2-methylpropyl]amino}-1,2,4-thiadiazol-3-yl)benzamide]: the “Mean AC1.4” value (Table 2) is reported as “A (A=<1 uM)”.

As to `CC(C)(CNc1nc(-c2ccc(O)cc2)ns1)c1ccc(F)cc1` [4-(5-{[2-(4-fluorophenyl)-2-methylpropyl]amino}-1,2,4-thiadiazol-3-yl)phenol], for the setting “Table 2”, the “Mean AC1.4” value is reported as “A (A=<1 uM)”.

As for `C[C@H](CNc1nc(-c2ccc(C(N)=O)cc2)ns1)c1ccc(F)cc1` [4-(5-{[(2S)-2-(4-fluorophenyl)propyl]amino}-1,2,4-thiadiazol-3-yl)benzamide], where the note is “Table 2”, the “Mean AC1.4” value is listed as “A (A=<1 uM)”.

In the case of `COc1cccc(Cc2nsc(NCCc3ccc(S(N)(=O)=O)cc3)n2)c1` [4-[2-({3-[(3-methoxyphenyl)methyl]-1,2,4-thiadiazol-5-yl}amino)ethyl]benzenesulfonamide], the “Mean AC1.4” value (Table 2) is on record as “D (D=>20 uM)”.

Turning to `NS(=O)(=O)c1ccc(CCNc2nc(Cc3ccc(F)cc3)ns2)cc1` [4-[2-({3-[(4-fluorophenyl)methyl]-1,2,4-thiadiazol-5-yl}amino)ethyl]benzenesulfonamide], the “Mean AC1.4” value (Table 2) is “D (D=>20 uM)”.

Turning to `Oc1ccc(CCNc2nc(Cc3ccc(F)cc3)ns2)cc1` [4-[2-({3-[(4-fluorophenyl)methyl]-1,2,4-thiadiazol-5-yl}amino)ethyl]phenol], where the note is “Table 2”, the “Mean AC1.4” value is recorded as “D (D=>20 uM)”.

Turning to `CC(C)(CNc1nc(Cc2ccc(O)cc2)ns1)c1ccc(Cl)cc1` [4-[(5-{[2-(4-chlorophenyl)-2-methylpropyl]amino}-1,2,4-thiadiazol-3-yl)methyl]phenol], the “Mean AC1.4” value (Table 2) is listed as “A (A=<1 uM)”.

Regarding `CC(C)(CNc1nc(Cc2ccc(O)cc2)ns1)c1ccc(F)cc1` [4-[(5-{[2-(4-fluorophenyl)-2-methylpropyl]amino}-1,2,4-thiadiazol-3-yl)methyl]phenol], where the note is “Table 2”, the “Mean AC1.4” value is “A (A=<1 uM)”.

For the molecule `CC(C)(CNc1nc2c(Cl)cc(C#N)cc2s1)c1ccc(F)cc1` [4-chloro-2-(2-(4-fluorophenyl)-2-methylpropylamino)benzo[d] thiazole-6-carbonitrile], where the note is “Table 4”, the “Mean AC1.4” value is reported as “A (A=<1 uM)”.

For `CC(C)(CNc1nc2c(Cl)cc(C(N)=O)cc2s1)c1ccc(F)cc1` [4-chloro-2-(2-(4-fluorophenyl)-2-methylpropylamino)benzo[d] thiazole-6-carboxamide], the “Mean AC1.4” value (Table 4) is “A (A=<1 uM)”.

With `N#Cc1cc(Cl)c2nc(NCC3(c4ncccc4F)CCC3)sc2c1` [4-chloro-2-((1-(3-fluoropyridin-2-yl)cyclobutyl)methylamino)benzo[d] thiazole-6-carbonitrile], where the note is “Table 4”, the “Mean AC1.4” value is “B (B=1-10 uM)”.

Turning to `NC(=O)c1cc(Cl)c2nc(NCC3(c4ncccc4F)CCC3)sc2c1` [4-chloro-2-((1-(3-fluoropyridin-2-yl)cyclobutyl)methylamino)benzo[d] thiazole-6-carboxamide], the “Mean AC1.4” value (Table 4) is given as “A (A=<1 uM)”.
